Source: patent US12673029B2, “Nanodelivery system based on globulin-1 S allele, preparation method therefor and use thereof” (Zhejiang Gongshang University, priority 2022, dated 2026)

How the values were obtained:
[1] = tested on: wheat GSA protein (globulin-1 S allele); assay: Fluorescence quenching determination of the binding force of wheat GSA protein to curcumin; details: for KSV (Stern-Volmer dynamic quenching constant): GSA 1 μM, curcumin 1-10 μM
Experimental: A wheat GSA protein solution and a curcumin solution were mixed in a certain ratio (1:1, 1:2, 1:5, 1:10) at different temperatures (298 K, 303 K, 310 K) for 2 hours. The final concentration of GSA was 1 μM, wherein the molecular weight of GSA was 56.16 KDa and the concentration of curcumin was 1 μM, 2 μM, 5 μM and 10 μM. The excitation spectrum was set at 280 nm, the emission spectrum was from 320 nm to 500 nm, and the recording temperature was 298 K, 303 K, and 310 K.
At an excitation wavelength of 280 nm, tryptophan and tyrosine residues will be excited. Binding of proteins and small molecules will lead to a decrease in fluorescence emission. As the concentration of curcumin increased, the fluorescence intensity decreased constantly and a slight red shift appeared.
Fluorescence quenching can be divided into dynamic quenching and static quenching. A dynamic quenching process can be distinguished by a Stern-Volmer equation: F0/F=1+KSV[Q]=1+Kqτ0[Q] (1)
wherein F0 and F are the GSA fluorescence intensity of the system in the absence and presence of curcumin, respectively; [Q] is the concentration of a quencher curcumin; and Kq is a fluorescence quenching rate constant.
Values for a static quenching mechanism, a binding constant and the number of binding sites can be obtained from a […] equation: log[(F0-F)/F]=log(Ka)+n log[Q] (2)
wherein Ka is a binding constant, [Q] is the concentration of curcumin, and n is the number of binding sites. A log-log plot of log[(F0−F)/F] versus log[Q] was made at 298 K, 303 K, and 310 K, respectively, according to the equation, as shown in FIG. 3. Ka and n at different temperatures were obtained from the intercept and slope.
To determine the action force between GSA and curcumin, the temperature-dependent thermodynamic parameters (ΔG, ΔH, and ΔS) were calculated using the following equations: -lnK==−ΔH/RT+ΔS/RΔG=ΔH−TΔS (3) • wherein R is a gas constant (8.314 J/mol*K), and T is the experimental temperature.

[2] = tested on: Dendritic cells DC2.4; assay: Biological activity assay in OVA-sensitized dendritic cells DC2.4 (qRT-PCR of pro-inflammatory cytokines); type: cell-based; details: DC2.4 cells sensitized with OVA, cultured 24 hours
Experimental: Dendritic cells DC2.4 were sensitized by treatment with ovalbumin (OVA) and cultured for 24 hours with curcumin and wheat GSA protein-curcumin composite nanoparticles as experimental groups, respectively, and relevant experiments were conducted. Total RNA was extracted from the cells, and subjected to reverse transcription according to the instructions to obtain cDNA of relevant cells, and a quantitative reverse transcription polymerase chain reaction (qRT-PCR) was carried out by using a real-time fluorescence quantitative PCR system.

[3] = Light stability assay under UV irradiation (absorbance at 426 nm); type: physicochemical; details: 30 W UV lamp
Experimental: 0.93 mg of curcumin and 14.96 mg of wheat GSA protein-curcumin composite nanoparticles were accurately weighed to be separately put in petri dishes, and were irradiated at a close range with a 30 W UV lamp, sampling was performed at 0 h, 1 h, 2 h, 3 h, 4 h, 5 h, and 6 h, the samples were separately dissolved with a […], a volume was made up to a constant volume of 250 mL, 10 mL of the prepared solution was taken, and an absorbance at 426 nm was measured, wherein the absorbance was measured for three times to take an average.

- Kq (fluorescence quenching rate constant) ([1]; 298 K): 1.3981 10^13 L/mol*s
- Ka value, order of magnitude ([1]; 298 K, 303 K, and 310 K, 120 min): ~10^6
- Ka (binding constant) ([1]; 298 K, 120 min): 8.5822 10^6 L/mol
- KSV (Stern-Volmer dynamic quenching constant) ([1]; 298 K): 1.3981 10^5 L/mol
- Kq (fluorescence quenching rate constant) ([1]; 303 K): 2.0211 10^13 L/mol*s
- Ka (binding constant) ([1]; 303 K, 120 min): 15.7797 10^6 L/mol
- KSV (Stern-Volmer dynamic quenching constant) ([1]; 303 K): 2.0211 10^5 L/mol
- Kq (fluorescence quenching rate constant) ([1]; 310 K): 3.0636 10^13 L/mol*s
- Ka (binding constant) ([1]; 310 K, 120 min): 16.9238 10^6 L/mol
- KSV (Stern-Volmer dynamic quenching constant) ([1]; 310 K): 3.0636 10^5 L/mol
- absorbance at 426 nm after UV irradiation ([3]; 2 h of UV irradiation): 0.606
- absorbance at 426 nm after UV irradiation ([3]; 5 h of UV irradiation): 0.252
- absorbance at 426 nm after UV irradiation ([3]; 6 h of UV irradiation): 0.214
- decrease of absorbance after UV irradiation ([3]; 6 h of UV irradiation): 75%
SMILES: COc1cc(/C=C/C(=O)CC(=O)/C=C/c2ccc(O)c(OC)c2)ccc1O [curcumin, Curcumin]
- alleviating effect on the allergic effect produced by OVA (pro-inflammatory cytokine mRNA such as IL-6) [2]: a certain alleviating effect
